Measurements taken from US12643881B2, “Bicyclic amine CDK12 inhibitors” (Incyte Corporation, priority 2021, dated 2026).

Biological target: T1, CDK12 complexed with Cyclin K (Homo sapiens, UniProt Q9NYV4)
T1 construct: GST (N)
Assay: Alternative CDK Enzymatic Assays (HTRF, pre-incubation with compounds and 1 mM ATP), Example A2
Type: biochemical
Conditions: enzyme pre-incubated with compounds and 1 mM ATP for 60 minutes; reaction 120 minutes at 25° C.
Summary of the method: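 GST-tagged human CDK12 co-expressed with full-length Cyclin K (baculovirus), pre-incubated 60 min with compounds and 1 mM ATP; reaction started with 1 mM ATP and 50 nM ULight-4E-BP1 peptide, 120 min at 25 °C, pH 7.5 HEPES. EDTA-stopped, Eu-anti-phospho-4E-BP1 HTRF (665/620 nm); IC50 from 3- or 4-parameter fit vs DMSO/no-enzyme controls.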

T1 sequence (Q9NYV4 whole entry): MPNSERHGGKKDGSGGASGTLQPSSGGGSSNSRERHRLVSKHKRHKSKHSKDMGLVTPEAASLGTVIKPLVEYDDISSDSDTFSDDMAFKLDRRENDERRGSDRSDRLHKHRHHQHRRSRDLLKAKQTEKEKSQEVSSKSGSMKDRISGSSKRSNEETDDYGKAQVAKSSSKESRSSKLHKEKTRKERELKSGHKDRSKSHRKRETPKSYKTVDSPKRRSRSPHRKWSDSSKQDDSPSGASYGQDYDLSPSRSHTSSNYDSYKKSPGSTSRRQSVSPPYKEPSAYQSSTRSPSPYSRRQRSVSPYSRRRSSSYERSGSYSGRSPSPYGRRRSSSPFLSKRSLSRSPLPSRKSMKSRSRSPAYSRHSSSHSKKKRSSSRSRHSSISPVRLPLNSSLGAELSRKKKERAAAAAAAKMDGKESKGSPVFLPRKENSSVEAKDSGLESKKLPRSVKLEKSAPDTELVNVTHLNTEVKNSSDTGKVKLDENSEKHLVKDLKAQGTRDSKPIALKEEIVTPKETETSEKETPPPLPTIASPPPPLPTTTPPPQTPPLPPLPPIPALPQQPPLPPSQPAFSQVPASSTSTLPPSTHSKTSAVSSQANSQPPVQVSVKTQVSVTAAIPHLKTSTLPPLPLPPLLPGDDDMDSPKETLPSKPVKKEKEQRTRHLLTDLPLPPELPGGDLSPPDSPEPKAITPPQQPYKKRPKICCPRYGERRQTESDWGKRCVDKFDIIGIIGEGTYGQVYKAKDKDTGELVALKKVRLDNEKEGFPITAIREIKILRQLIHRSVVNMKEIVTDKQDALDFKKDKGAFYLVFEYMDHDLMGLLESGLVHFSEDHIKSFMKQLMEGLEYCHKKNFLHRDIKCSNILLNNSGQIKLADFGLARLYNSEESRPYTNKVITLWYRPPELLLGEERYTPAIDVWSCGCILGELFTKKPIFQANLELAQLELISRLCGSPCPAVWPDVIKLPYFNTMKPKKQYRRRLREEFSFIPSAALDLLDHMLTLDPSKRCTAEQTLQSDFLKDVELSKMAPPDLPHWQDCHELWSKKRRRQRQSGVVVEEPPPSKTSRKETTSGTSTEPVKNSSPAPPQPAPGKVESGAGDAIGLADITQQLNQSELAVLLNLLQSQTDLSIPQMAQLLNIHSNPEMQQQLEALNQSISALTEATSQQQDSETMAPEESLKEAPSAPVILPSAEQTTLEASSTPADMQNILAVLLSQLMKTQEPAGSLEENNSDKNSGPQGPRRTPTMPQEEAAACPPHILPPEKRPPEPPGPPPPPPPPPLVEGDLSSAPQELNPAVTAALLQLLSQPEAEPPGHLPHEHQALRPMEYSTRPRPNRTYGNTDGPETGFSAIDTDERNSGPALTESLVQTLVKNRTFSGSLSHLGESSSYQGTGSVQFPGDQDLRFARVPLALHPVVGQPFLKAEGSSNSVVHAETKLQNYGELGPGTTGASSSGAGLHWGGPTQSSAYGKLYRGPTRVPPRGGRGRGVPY
T1 sequence (O75909 whole entry partner): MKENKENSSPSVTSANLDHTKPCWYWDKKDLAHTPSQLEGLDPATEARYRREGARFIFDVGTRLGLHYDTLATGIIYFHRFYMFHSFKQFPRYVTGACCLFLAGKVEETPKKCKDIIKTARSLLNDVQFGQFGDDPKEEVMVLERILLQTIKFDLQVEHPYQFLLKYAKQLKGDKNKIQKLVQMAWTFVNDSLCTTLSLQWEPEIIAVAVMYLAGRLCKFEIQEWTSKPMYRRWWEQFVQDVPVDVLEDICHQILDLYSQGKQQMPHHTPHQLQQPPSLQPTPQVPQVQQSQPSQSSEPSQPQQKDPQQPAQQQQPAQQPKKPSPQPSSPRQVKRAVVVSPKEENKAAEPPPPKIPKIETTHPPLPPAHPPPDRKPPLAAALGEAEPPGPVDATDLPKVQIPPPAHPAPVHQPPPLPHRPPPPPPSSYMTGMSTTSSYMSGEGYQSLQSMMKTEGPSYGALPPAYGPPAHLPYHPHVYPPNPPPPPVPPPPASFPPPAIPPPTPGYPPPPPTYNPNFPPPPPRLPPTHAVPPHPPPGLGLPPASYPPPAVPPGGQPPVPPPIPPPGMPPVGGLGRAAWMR

Compared with `C=CC(=O)Nc1ccc2c(c1)nc(N1C[C@H](Nc3ncc(C(F)(F)F)cn3)CC(F)(F)C1)n2C` [Example 124, (R)—N-(2-(3,3-Difluoro-5-((5-(trifluoromethyl)pyrimidin-2-yl)amino)piperidin-1-yl)-1-methyl-1H-benzo[d]imidazol-5-yl)acrylamide], `C=CC(=O)N1CCN(c2ccc3c(c2)nc(N2CCC[C@@H](Nc4ncc(C(F)(F)F)cn4)C2)n3C)CC1` [Example 128, (R)-1-(4-(1-Methyl-2-(3-((5-(trifluoromethyl)pyrimidin-2-yl)amino)piperidin-1-yl)-1H-benzo[d]imidazol-5-yl)piperazin-1-yl)prop-2-en-1-one] is higher in IC50: less than 0.05 µM for the first, 0.05 to 0.5 µM for the second.

First: N-(2-((3R,5R)-3-Hydroxy-5-((5-(trifluoromethyl)pyrimidin-2-yl)amino)piperi-dine-1-yl)-1,6-dimethyl-1H-benzo[d]imidazol-5-yl)acrylamide [Example 94]
Second: C=CC(=O)Nc1c(C(C)C)cc2c(nc(N3CCC[C@@H](Nc4ncc(C(F)(F)F)cn4)C3)n2C)c1C [Example 155, (R)—N-(6-Isopropyl-1,4-dimethyl-2-(3-((5-(trifluoromethyl)pyrimidin-2-yl)amino)piperidin-1-yl)-1H-benzo[d]imidazol-5-yl)acrylamide]
The IC50 of the first is higher: 0.05 to 0.5 µM for the first, less than 0.05 µM for the second. The second is the more potent here.

Compared with `C=CC(=O)Nc1cc2nc(N3CCC[C@@H](Nc4ncc(C(F)(F)F)cn4)C3)n(C)c2cc1C1CC1` [Example 150, (R)—N-(6-Cyclopropyl-1-methyl-2-(3-((5-(trifluoromethyl)pyrimidin-2-yl)amino)piperidin-1-yl)-1H-benzo[d]imidazol-5-yl)acrylamide], `Cc1cc2c(cc1NC(=O)/C=C/CN(C)C)nc(N1C[C@H](F)C[C@@H](Nc3ncc(C(F)(F)F)cn3)C1)n2C` [Example 120, (E)-4-(Dimethylamino)-N-(2-((3R,5R)-3-fluoro-5-((5-(trifluoromethyl)pyrimidin-2-yl)amino)piperidin-1-yl)-1,6-dimethyl-1H-benzo[d]imidazol-5-yl)but-2-enamide] is higher in IC50: less than 0.05 µM for the first, greater than 0.5 µM for the second.

`C=CC(=O)Nc1cc2nc(N3CCC[C@@H](Nc4ncc(C(F)(F)F)cn4)C3)n(C)c2cc1C` [Example 102, (R)—N-(1,6-Dimethyl-2-(3-((5-(trifluoromethyl)pyrimidin-2-yl)amino)piperidin-1-yl)-1H-benzo[d]imidazol-5-yl)acrylamide] and `C=CC(=O)Nc1ccc2c(c1)nc(N1CCC[C@@H](Nc3ncc(C#N)cn3)C1)n2C` [Example 143, (R)—N-(2-(3-((5-Cyanopyrimidin-2-yl)amino)piperidin-1-yl)-1-methyl-1H-benzo[d]imidazol-5-yl)acrylamide] cannot be ordered by IC50: less than 0.05 µM for the first, less than 0.05 µM for the second.

`C=C(F)C(=O)Nc1cc2nc(N3C[C@H](F)C[C@@H](Nc4ncc(C(F)(F)F)cn4)C3)n(C)c2cc1C` [Example 117, 2-Fluoro-N-(2-((3R,5R)-3-fluoro-5-((5-(trifluoromethyl)pyrimidin-2-yl)amino)piperidin-1-yl)-1,6-dimethyl-1H-benzo[d]imidazol-5-yl)acrylamide] and `C=CC(=O)Nc1cc2nc(N3C[C@H](F)C[C@@H](Nc4ncc(C#N)c(C)n4)C3)n(C)c2cc1C` [Example 164, N-(2-((3R,5R)-3-((5-Cyano-4-methylpyrimidin-2-yl)amino)-5-fluoropiperidin-1-yl)-1,6-dimethyl-1H-benzo[d]imidazol-5-yl)acrylamide] fall in the same range of IC50: 0.05 to 0.5 µM for the first, 0.05 to 0.5 µM for the second.

`C=CC(=O)Nc1cc2nc(N3C[C@H](F)C[C@@H](Nc4ncc(C(F)(F)F)cn4)C3)n(C)c2cc1N1CCCC1` [Example 136, N-(2-((3R,5R)-3-Fluoro-5-((5-(trifluoromethyl)pyrimidin-2-yl)amino)piperidin-1-yl)-1-methyl-6-(pyrrolidin-1-yl)-1H-benzo[d]imidazol-5-yl)acrylamide] and `C=CC(=O)Nc1cc2nc(N3C[C@H](F)C[C@@H](Nc4ncc(C(F)(F)F)cn4)C3)n(C)c2cc1C` [Example 100, N-(2-((3R,5R)-3-fluoro-5-((5-(trifluoromethyl)pyrimidin-2-yl)amino)piperidin-1-yl)-1,6-dimethyl-1H-benzo[d]imidazol-5-yl)acrylamide] cannot be ordered by IC50: less than 0.05 µM for the first, less than 0.05 µM for the second.

Going from `C=CC(=O)Nc1cc2nc(N3CC[C@@H](O)[C@@H](Nc4ncc(C(F)(F)F)cn4)C3)n(C)c2cc1C` [Example 148, N-(2-((3S,4R)-4-Hydroxy-3-((5-(trifluoromethyl)pyrimidin-2-yl)amino)piperidin-1-yl)-1,6-dimethyl-1H-benzo[d]imidazol-5-yl)acrylamide] to `C=CC(=O)Nc1cc2nc(N3CCC[C@@H](Nc4ncc(C(F)(F)F)cn4)C3)n(C)c2cc1OC` [Example 166, (R)—N-(6-Methoxy-1-methyl-2-(3-((5-(trifluoromethyl)pyrimidin-2-yl)amino)piperidin-1-yl)-1H-benzo[d]imidazol-5-yl)acrylamide], the IC50 falls from greater than 0.5 µM to less than 0.05 µM.

For `C=CC(=O)Nc1cc2nc(N3C[C@H](F)C[C@@H](Nc4ncc(C(F)(F)F)cn4)C3)n(C)c2cc1N1CCOCC1` [Example 139, N-(2-((3R,5R)-3-Fluoro-5-((5-(trifluoromethyl)pyrimidin-2-yl)amino)piperidin-1-yl)-1-methyl-6-morpholino-1H-benzo[d]imidazol-5-yl)acrylamide], the IC50 was 0.05 to 0.5 µM.
